# Data from patent publication US20230053540A1, “TREATMENT OF LIVER INJURY” (Massachusetts Institute of Technology, priority 2019, published 2023).
# System: hepatocytes
# Assay: Seq-Well scRNA-Seq of hepatocytes after APAP overdose (signature scores, DEG vs untreated)
# Assay type: in vivo, mouse
# Settings: APAP vs UT
smiles,measurement,value
"CC(=O)Nc1ccc(O)cc1 [APAP, acetaminophen]",Apobec1 logFC,0.3051
same,Apol7a logFC,−0.4923
same,App logFC,0.3618
same,Arcn1 logFC,0.3278
same,Arl4d logFC,−0.5072
same,Asgr1 logFC,−0.3857
same,Atox1 logFC,−0.4462
same,Atp5e logFC,−0.6502
same,Atp5f1 logFC,−0.5171
same,Atp5j2 logFC,−0.5131
same,Atp5j logFC,−0.4837
same,Atp8b1 logFC,0.3628
same,Atxn1 logFC,0.3049
same,BC005537 logFC,0.3543
same,Baz1a logFC,0.2596
same,Bcl3 logFC,0.289
same,Blvrb logFC,−0.5451
same,Btg1 logFC,0.458
same,Btg2 logFC,0.8321
same,C1qa logFC,0.5148
same,C1qc logFC,0.5861
same,C8a logFC,0.3337
same,Calm1 logFC,0.4131
same,Calu logFC,0.3041
same,Canx logFC,0.3434
same,Cat logFC,0.2626
same,Cd44 logFC,0.3037
same,Cd53 logFC,0.2656
same,Cd74 logFC,0.4539
same,Cd97 logFC,0.3458
same,Cd302 logFC,−0.5499
same,Cebpb logFC,−0.4716
same,Ces1e logFC,0.2656
same,Ces3b logFC,−0.3664
same,Cfh logFC,0.4009
same,Cfhr2 logFC,−0.4485
same,Cfi logFC,0.2516
same,Cfp logFC,0.3562
same,Chchd2 logFC,−0.5525
same,Chic2 logFC,0.4198
same,Cldn14 logFC,0.3645
same,Clpx logFC,−0.4047
same,Cltc logFC,0.785
same,Cmah logFC,0.3616
same,Cmbl logFC,−0.4427
same,Cml1 logFC,−0.6142
same,Cml2 logFC,−0.3979
same,Copa logFC,0.3451
same,Cox5b logFC,−0.4988
same,Cox7a2 logFC,−0.6503
same,Cox7b logFC,−0.6422
same,Cpb2 logFC,0.3222
same,Cps1 logFC,0.3245
same,Crp logFC,−0.5069
same,Csde1 logFC,0.3269
same,Ctsd logFC,0.2579
same,Ctsl logFC,0.5301
same,Cxadr logFC,0.6985
same,Cyb5b logFC,−0.4233
same,Cyb5r3 logFC,0.339
same,Cyp4a12a logFC,−0.4568
same,Cytip logFC,0.2676
same,Dcxr logFC,−0.4409
same,Ddt logFC,−0.5222
same,Ddx3x logFC,0.6569
same,Ddx5 logFC,0.5229
same,Ddx21 logFC,0.7314
same,Dgkd logFC,0.3708
same,Dhrs3 logFC,−0.4676
same,Dio1 logFC,−0.5453
same,Dkc1 logFC,0.3258
same,Dnajc12 logFC,0.3221
same,Dot1l logFC,0.397
same,Dst logFC,0.511
same,Dstn logFC,0.3243
same,Dusp6 logFC,0.5916
same,Dusp16 logFC,0.4605
same,Eaf1 logFC,0.5218
same,Ebpl logFC,−0.4503
same,Eef1b2 logFC,−0.3173
same,Eef2 logFC,0.5259
same,Efna1 logFC,0.3361
same,Eif1a logFC,0.7953
same,Eif4g1 logFC,0.3749
same,Epas1 logFC,0.7758
same,Epb4.1 logFC,0.5628
same,Errfi1 logFC,0.3937
same,Etf1 logFC,0.5594
same,Etfb logFC,−0.3655
same,Etnk1 logFC,0.3521
same,F5 logFC,0.3006
same,Fabp2 logFC,−0.6156
same,Fcgr3 logFC,0.3082
same,Fcna logFC,0.3774
same,Fdx1 logFC,−0.6234
same,Fgl2 logFC,0.2818
same,Fkbp5 logFC,0.5161
same,Fndc3b logFC,0.4096
same,Fos logFC,0.432
same,Fxyd1 logFC,−0.4799
same,Gamt logFC,−0.5603
same,Gas5 logFC,−0.3362
same,Gchfr logFC,−0.5548
same,Gclm logFC,0.2699
same,Gjb2 logFC,0.6082
same,Glyat logFC,−0.6477
same,Gm4076 logFC,−0.3255
same,Gm4952 logFC,−0.4987
same,Gm5096 logFC,−0.3631
same,Gm23388 logFC,0.4162
same,Gm24187 logFC,0.4319
same,Gm26917 logFC,0.8237
same,Gnl2 logFC,0.3905
same,Gnl3 logFC,0.576
same,Gpt2 logFC,0.5391
same,Gsta2 logFC,0.2522
same,Gstm3 logFC,−0.5986
same,Gstz1 logFC,−0.4641
same,Gulo logFC,−0.8017
same,H2-Aa logFC,0.3279
same,H2-Ab1 logFC,0.461
same,H2-Eb1 logFC,0.3279
same,H3f3b logFC,0.7029
same,Haao logFC,−0.5912
same,Hacl1 logFC,−0.7069
same,Hadha logFC,0.2509
same,Hal logFC,0.2801
same,Hao1 logFC,0.323
same,Hc logFC,0.3679
same,Heatr1 logFC,0.406
same,Hebp1 logFC,−0.6354
same,Hes6 logFC,−0.5613
same,Hibadh logFC,−0.4994
same,Hic2 logFC,0.2898
same,Hif1a logFC,0.5169
same,Hint2 logFC,−0.4243
same,Hook1 logFC,0.3274
same,Hpd logFC,−0.5182
same,Hpgd logFC,−0.3878
same,Hpx logFC,−0.3033
same,Hs3st3b1 logFC,0.343
same,Hsd17b2 logFC,−0.5959
same,Hspa13 logFC,0.3548
same,Hspb8 logFC,0.6339
same,Hspe1 logFC,−0.4807
same,Ibtk logFC,0.3311
same,Ier5 logFC,0.289
same,Ifitm3 logFC,−0.4251
same,Igfbp1 logFC,1.059
same,Igfbp2 logFC,−0.3451
same,Il6st logFC,0.3335
same,Il13ra1 logFC,0.303
same,Inmt logFC,−0.731
same,Insig1 logFC,0.4655
same,Ipo7 logFC,0.3246
same,Itgb2 logFC,0.2723
same,Itih2 logFC,0.5011
same,Jak1 logFC,0.6039
same,Jmjd1c logFC,0.6366
same,Kctd3 logFC,0.2608
same,Keg1 logFC,−0.8245
same,Klf15 logFC,−0.4518
same,Kmo logFC,−0.3844
same,Lactb2 logFC,−0.5965
same,Laptm5 logFC,0.3382
same,Lcn2 logFC,0.4122
same,Leap2 logFC,−0.6713
same,Lect2 logFC,−0.627
same,Lgmn logFC,0.4846
same,Lgr4 logFC,0.269
same,Lman1 logFC,0.2986
same,Lmo4 logFC,0.3205
same,Lonp2 logFC,−0.4674
same,Lpin1 logFC,0.2775
same,Lrp1 logFC,0.5051
same,Lrrc59 logFC,0.3772
same,Lrrfip1 logFC,0.4459
same,Lyst logFC,0.4093
same,Maff logFC,0.3553
same,Mak16 logFC,0.3171
same,Malat1 logFC,0.9206
same,Manf logFC,0.4689
same,Map2k3 logFC,0.4347
same,Mbl1 logFC,−0.713
same,Mcm10 logFC,−0.4874
same,Mdn1 logFC,0.318
same,Minos1 logFC,−0.4555
same,Mlec logFC,0.3246
same,Mmp14 logFC,0.2889
same,Mpc1 logFC,−0.2818
same,Mpc2 logFC,−0.4828
same,Mrpl14 logFC,−0.459
same,Msn logFC,0.2602
same,Msrb1 logFC,−0.599
same,Mug2 logFC,0.3704
same,Mup2 logFC,1
same,Myo1e logFC,0.6143
same,Nab1 logFC,0.3342
same,Ndufa6 logFC,−0.6136
same,Ndufa7 logFC,−0.5559
same,Ndufa13 logFC,−0.4388
same,Ndufb2 logFC,−0.5772
